Experimental data: patent US6613956B1, “PI 3-kinase fusion mutants and uses thereof” (Chiron Corporation, priority 1996, dated 2003)

How the values were obtained:
Akt = molecular target: T1, Akt (Mus musculus, UniProt P31750); assay: In vitro protein kinase assay of immobilized Akt preincubated with phospholipid vesicles, histone H2B as substrate; type: biochemical; settings: for increases Akt activity: summary statement for the three PI 3-kinase products; for stimulation of Akt: p110*-generated PI3,4P2 in PC vesicles, relative to unstimulated Akt
T1 construct: made in house; host or cells: COS-7 cells (transient transfection, anti-HA 12CA5 immunoprecipitation on Protein A-Sepharose)
T1 sequence (P31750 whole entry): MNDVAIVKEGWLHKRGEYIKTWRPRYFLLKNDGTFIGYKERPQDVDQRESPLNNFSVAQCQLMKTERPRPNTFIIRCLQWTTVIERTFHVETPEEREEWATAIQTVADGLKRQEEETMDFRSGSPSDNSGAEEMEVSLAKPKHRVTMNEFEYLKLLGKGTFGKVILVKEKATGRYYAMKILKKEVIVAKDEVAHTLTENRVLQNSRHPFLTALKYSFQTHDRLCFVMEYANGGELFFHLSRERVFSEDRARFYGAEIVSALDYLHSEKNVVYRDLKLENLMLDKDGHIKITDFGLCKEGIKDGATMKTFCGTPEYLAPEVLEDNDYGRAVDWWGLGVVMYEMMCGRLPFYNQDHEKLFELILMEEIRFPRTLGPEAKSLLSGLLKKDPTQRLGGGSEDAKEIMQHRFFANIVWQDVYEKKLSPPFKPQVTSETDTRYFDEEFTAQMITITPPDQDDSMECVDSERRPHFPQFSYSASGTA

Akt RC25 = molecular target: T2, Akt RC25 (Homo sapiens, UniProt P31749, R25C); assay: In vitro kinase assay of PH domain point mutant Akt RC25 with PI3,4P2 vesicles; type: biochemical; settings: vesicles generated with p110*
T2 construct: made in house; host or cells: COS-7 cells (transient transfection, anti-HA 12CA5 immunoprecipitation on Protein A-Sepharose)
T2 sequence (P31749 whole entry R25C, the tested form may be a part): as the sequence (P31750 whole entry) above, with N2S, R25C, S50A, A100T, R112K, T117E, T389K, N410G, D415H counted along it
Description: We determined that the PH domain at the Akt N-terminus is essential for PI3,4P2 mediated stimulation. It has previously been reported that the stimulation of the kinase activity of Akt by PI 3-kinase in vivo is dependent on the PH domain at its immediate N-terminus. We determined that PI3,4P2 mediates its stimulatory effect on Akt through its PH domain by introducing a point mutation in the PH domain of Akt (Akt RC25) which abrogates PI 3-kinase-mediated Akt activation in vivo. A kinase-deficient Akt, Akt KA179, was tested as an additional control. We incubated Akt, Akt RC25 and Akt KA179 proteins with PI3,4P2 in phospholipid vesicles using p110* as described above. […] The kinase-deficient Akt KA179 had no detectable enzymatic activity.
The assay for the in vitro protein kinase activity of Akt was conducted with immobilized Akt that was preincubated with or without mixed phospholipid vesicles (20 μl) for 10 min and subjected to an in vitro protein kinase assay using histone H2B (Boehringer Mannheim) as a substrate. […] The reactions were stopped by the addition of 8 μl Lammli-sample buffer and 22 μi of each reaction mixture were analyzed by 16% SDS-PAGE. The relative amounts of incorporated radioactivity were visualized by autoradiography and quantitated using a Molecular Imager System (BioRad).

Row | Substance | increases Akt activity (Akt) | stimulation of Akt kinase activity (Akt; vesicles containing synthetic PI3P, any conditions) | Akt activation (Akt; PE/PS vesicles) | stimulation of Akt (Akt; 4 μM) [fold] | stimulation of Akt (Akt; average) [fold] | Akt activation (Akt; presence of PS in the PI3,4P2/PC vesicles) | Akt activation (Akt; synthetic PI3,4P2 in either PE or PS vesicles) | further increase in Akt activation (Akt; synthetic dipalmitoyl derivatives of PI3,4P2, 260 nM to 1.3 μM) | increase in kinase activity of Akt (Akt; synthetic dipalmitoylated PI3,4P2 in PC vesicles) | activation of Akt by PI3,4P2 containing vesicles (Akt; wild-type Akt, vesicles generated with p110*) | activation of Akt RC25 by PI3,4P2 containing vesicles (Akt RC25)
1 | PI 3-phosphate [PI3P] | not | No stimulation | – | – | – | – | – | – | – | – | –
2 | phosphatidylinositol 3,4 bisphosphate [PI3,4P2] | increases Akt activity | – | did not allow activation of Akt | 9 | 3 | interfered with Akt activation | No activation | No further increase | approximately 2.5 fold | efficiently activated | not activated
